Legend:
[1] = 7-day toxicological study in MSTO-211H tumor-bearing mice; assay type: in vivo; conditions: 10 or 30 mg/kg i.p. daily, 7 days
Experimental: A toxicological evaluation was conducted using an MSTO‐211H xenograft mouse model. All animal studies were carried out in accordance with protocols approved by the Institutional Animal Care and Use Committees of Tongji University and the Chinese Academy of Sciences, and in compliance with national, institutional and local regulations. These experiments were conducted in specific‐pathogen‐free (SPF) and Helicobacter‐free facilities at both institutions. After 7 consecutive days of drug administration (10 mg kg^−1 or 30 mg kg^−1, i.p., q.d.), whole blood and major organs—including the heart, liver, spleen, lungs, and kidneys—were collected for analysis. Blood samples were anticoagulated with EDTA (1.5 mg mL^−1), gently mixed, and subjected to standard hematological assessment. Tissue samples were processed for both paraffin‐embedded and frozen section analysis. Paraffin embedding involved fixation, graded dehydration, clearing, embedding, sectioning at 4 µm, and dewaxing to water. Frozen sections were prepared by embedding tissues in OCT compound, sectioning at −20 °C with a thickness of 8 µm, followed by acetone fixation and rinsing with PBS. […] Microscopic examinations and image acquisition were carried out, and quantitative analyses were performed using specialized image analysis software. […]

[2] = molecular target: TEAD1 (Homo sapiens, UniProt P28347); test: Immunoblot in wild-type / CRBN-knockout HEK293T cells and rescue experiment; assay type: cell-based; parameters: endogenous in cells; host or cells: HEK293T wild-type and CRBN-knockout; conditions: 6 h treatment
TEAD1, sequence (P28347 whole entry): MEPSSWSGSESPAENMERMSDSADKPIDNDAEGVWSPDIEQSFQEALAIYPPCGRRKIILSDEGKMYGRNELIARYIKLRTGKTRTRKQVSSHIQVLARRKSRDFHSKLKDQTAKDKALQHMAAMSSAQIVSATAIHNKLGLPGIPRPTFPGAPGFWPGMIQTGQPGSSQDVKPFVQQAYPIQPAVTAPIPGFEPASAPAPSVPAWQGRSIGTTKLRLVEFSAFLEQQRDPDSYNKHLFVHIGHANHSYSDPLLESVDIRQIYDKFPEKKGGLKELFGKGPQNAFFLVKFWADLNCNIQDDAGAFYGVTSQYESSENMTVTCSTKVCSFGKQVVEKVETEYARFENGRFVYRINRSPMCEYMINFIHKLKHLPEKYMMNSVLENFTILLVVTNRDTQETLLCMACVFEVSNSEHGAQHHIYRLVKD
Experimental: Immunoblotting was carried out as previously described.^[ [29] ^] Cells were seeded in 6‐well plates (Yeasen, #84011ES50) at a density of 1 million cells per well. The following day, cells were treated with compounds at the required concentrations, with the DMSO concentration kept below 0.4‰ to prevent toxic effects on the cells. The collected cell pellets were washed three times with PBS (Meilunbio, #MA0015) and resuspended in 120 µL of RIPA lysis buffer (Meilunbio, #MA0151) containing 1% protease inhibitor (Meilunbio, #MB2678‐2). The cells were then sonicated on ice and centrifuged at 12 000 rpm for 15 min at 4 °C to remove cellular debris. Protein concentrations were determined using the BCA Protein Quantification Kit (Meilunbio, #MA0082‐1). The protein samples were normalized, boiled at 99 °C for 10 min, and then subjected to electrophoresis on a 10% SDS‐PAGE gel. The separated protein bands were transferred to nitrocellulose membranes, blocked with TBST containing 5% BSA, and incubated with the indicated primary antibodies. Finally, the blots were imaged using an Amersham Typhoon NIR imager.

[3] = system: NCI-H226 cells; test: DIA proteomics in NCI-H226 cells; assay type: cell-based, Homo sapiens; conditions: 100 nM, 24 h
Experimental: Cells were seeded in 6‐well plates at 1 × 10⁶ cells well^−1 and treated with 100 nM KG‐FP‐003 (n = 3). After 24 h incubation, cells were harvested, washed with ice‐cold PBS, and stored at −80 °C. Cell pellets were lysed in 4 volumes of lysis buffer (1% SDS, 1% protease inhibitor cocktail) followed by 3 min sonication on ice. After centrifugation (12 000 g, 10 min, 4 °C), supernatants were collected for BCA protein quantification. Proteins were reduced with 5 mM DTT (56 °C, 30 min), alkylated with 11 mM iodoacetamide (RT, dark, 15 min), and diluted with 200 mM TEAB to reduce urea concentration below 2 M. Trypsin digestion (1:50 enzyme‐to‐protein ratio) was performed at 37 °C overnight followed by additional 4 h digestion. Peptides were desalted using Strata‐X SPE columns. […] MS analysis was performed on a timsTOF Pro mass spectrometer in dia‐PASEF mode (ESI voltage: 1.75 kV; scan range: 300–1500 m z^−1). DIA data were processed using DIA‐NN (v1.8) against the Homo_sapiens_9606_SP_20 231 220.fasta database (20429 entries) with reversed decoys, using trypsin as the cleavage enzyme. Fixed modifications included N‐terminal methionine excision and carbamidomethylation of cysteine, with FDR set at <1%.

[4] = system: IKZF1-3, GSPT1; test: HiBiT off-target assessment (IMiD substrates); assay type: cell-based; conditions: HiBiT-tagged cell lines, 6 h
Experimental: (§1) HiBiT cells were inoculated into 96‐well flat‐bottomed tissue culture plates at a density of 50 000 cells per well, followed by adding degraders into the wells using the I‐DOT dispenser. After 6 h of incubation, the cells were lysed and assayed for degradation using the Nano‐Glo HiBiT Lysis Assay System (Promega, #N3030). Luminescence signals were read using an Envision plate reader (Revvity) and the data were analyzed using GraphPad Prism 9.5 software.

[5] = system: MSTO-211H CRBN knockout cells; test: Cell viability assay, CRBN-knockout MSTO-211H; assay type: cell-based; conditions: Homo sapiens, Figure 3D, read-out: MSTO-211H: CRBN KO IC50
Experimental: Cells were seeded at a density of 1000 cells per well in 96‐well flat‐bottomed cell culture plates and cultured overnight at 37 °C with 5% CO2 to allow for cell attachment. The following day, different concentrations of compounds were added using an I‐DOT dispenser. After 72 h, 25 µL of CellTiter‐Meiluncell Luminescent Cell Viability Reagent (Meilunbio, #PWL111‐2) was added and incubated for 15 min at room temperature. Luminescence signals were then measured using an Envision plate reader (Revvity). Data were analyzed using GraphPad Prism 9.5 software.^[ [30] ^]

[6] = molecular target: T1, TEAD3 (Homo sapiens, UniProt Q99594); test: HiBiT degradation assay, HEK293T HiBiT-TEAD3; assay type: cell-based; conditions: 6 h
T1 construct: endogenous in cells; host or cells: HEK293T HiBiT knock-in
T1 sequence (Q99594 whole entry): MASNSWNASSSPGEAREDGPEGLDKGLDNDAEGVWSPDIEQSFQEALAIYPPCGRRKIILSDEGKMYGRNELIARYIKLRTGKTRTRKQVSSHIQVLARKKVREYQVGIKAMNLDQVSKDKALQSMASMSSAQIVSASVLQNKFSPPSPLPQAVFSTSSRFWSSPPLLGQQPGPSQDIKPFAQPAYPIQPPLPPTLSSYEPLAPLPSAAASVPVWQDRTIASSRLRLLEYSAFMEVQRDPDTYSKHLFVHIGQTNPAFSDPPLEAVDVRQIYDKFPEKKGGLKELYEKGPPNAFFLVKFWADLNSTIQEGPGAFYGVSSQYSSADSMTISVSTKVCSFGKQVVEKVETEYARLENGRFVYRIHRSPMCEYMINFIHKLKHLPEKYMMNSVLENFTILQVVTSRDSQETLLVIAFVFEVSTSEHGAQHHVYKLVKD
Experimental: as §1
The ribonucleoprotein (RNP) complex was prepared by mixing 2 µg of NLS‐Cas9‐EGFP nuclease (Novoprotein, #E379‐01A), 50 pmol of sgRNA, 10 µL of electrotransfer solution, and 50 pmol of designed donor DNA, then incubated for 10 min at room temperature. One million HEK293T cells were resuspended in 10 µL of electrotransfection solution and mixed with 10 µL of the RNP complex. Electroporation was performed using a Celetrix SP100 electroporator at 480 V. After electroporation, the cells were transferred to antibiotic‐free DMEM complete medium for overnight culture. The following day, EGFP‐positive cells were sorted using a Sony MA 900 cell sorter, plated in a 96‐well cell culture plate (Servicebio, #CCP‐96H), and cultured for 4 weeks. After this period, positive clones were screened using the Nano‐Glo HiBiT Lytic Detection system (Promega, #N3030).

SMILES: CNC(=O)c1cc2c(c(F)c1-c1c(Cl)c(F)cc3c1C[C@@](CN[C@H]1CC[C@H](C(=O)N4CCC(CC5CCN(C(=O)COc6ccc(N7CCC(=O)NC7=O)c(C)c6)CC5)CC4)CC1)(c1ccccc1)O3)[C@@H](O)[C@@H](C)C2 [KG-FP-003]
- Hematological analyses [1]: no significant deviations from baseline
- Histopathological examination of heart, liver, spleen, lungs, kidneys [1]: no structural abnormalities or pathological lesions
- TEAD degradation in CRBN-null HEK293T cells [2]: minimal
- Proteome-wide selectivity [3]: selective downregulation of TEAD1 and TEAD4
- Off-target degradation of IMiD substrates IKZF1-3 and GSPT1 [4]: no off‐target degradation was detected
- IC50 [5]: 543 ± 50 nM
- DC50 [6]: 12 ± 5 nM
- TEAD3 Dmax [6]: ≈ 90%
- Dmax ([6]; HEK-293T): 87 ± 9%
